For assay [1], the system named is HL-60. The assay can be described thus: Growth inhibition of human HL60 cells after 72 hrs by trypan blue assay. It counts as functional. Conditions: HL-60, 72 h.
Assay [2] relates to HepG2. The experiment in a line: Growth inhibition of human HepG2 cells after 72 hrs by trypan blue assay. The assay is classed as functional. Conditions: HepG2, 72 h.
Assay [3] has as its system HeLa. The assay can be described thus: Growth inhibition of human HeLa cells after 72 hrs by trypan blue assay. The assay is classed as functional.
Assay [4] has as its system Salmon testes DNA. The assay can be described thus: Binding affinity to Salmon testis DNA assessed as drug-DNA complex formation at drug:DNA ratio of 0.08 at 310 to 380 nanometer by linear flow dichroism method. The assay is classed as nucleic-acid assay. To be noted: Salmonidae.
Assay [5] deals with DNA topoisomerase 2-alpha (Homo sapiens) (UniProt P11388). The assay can be described thus: Inhibition of human recombinant topoisomerase-2 alpha expressed in Escherichia coli assessed as reduction in supercoiled pBR322 DNA relaxation after 60 mins by ethidium bromide staining based agarose gel electrophoresis.
DNA topoisomerase 2-alpha (Homo sapiens), sequence (P11388 whole entry): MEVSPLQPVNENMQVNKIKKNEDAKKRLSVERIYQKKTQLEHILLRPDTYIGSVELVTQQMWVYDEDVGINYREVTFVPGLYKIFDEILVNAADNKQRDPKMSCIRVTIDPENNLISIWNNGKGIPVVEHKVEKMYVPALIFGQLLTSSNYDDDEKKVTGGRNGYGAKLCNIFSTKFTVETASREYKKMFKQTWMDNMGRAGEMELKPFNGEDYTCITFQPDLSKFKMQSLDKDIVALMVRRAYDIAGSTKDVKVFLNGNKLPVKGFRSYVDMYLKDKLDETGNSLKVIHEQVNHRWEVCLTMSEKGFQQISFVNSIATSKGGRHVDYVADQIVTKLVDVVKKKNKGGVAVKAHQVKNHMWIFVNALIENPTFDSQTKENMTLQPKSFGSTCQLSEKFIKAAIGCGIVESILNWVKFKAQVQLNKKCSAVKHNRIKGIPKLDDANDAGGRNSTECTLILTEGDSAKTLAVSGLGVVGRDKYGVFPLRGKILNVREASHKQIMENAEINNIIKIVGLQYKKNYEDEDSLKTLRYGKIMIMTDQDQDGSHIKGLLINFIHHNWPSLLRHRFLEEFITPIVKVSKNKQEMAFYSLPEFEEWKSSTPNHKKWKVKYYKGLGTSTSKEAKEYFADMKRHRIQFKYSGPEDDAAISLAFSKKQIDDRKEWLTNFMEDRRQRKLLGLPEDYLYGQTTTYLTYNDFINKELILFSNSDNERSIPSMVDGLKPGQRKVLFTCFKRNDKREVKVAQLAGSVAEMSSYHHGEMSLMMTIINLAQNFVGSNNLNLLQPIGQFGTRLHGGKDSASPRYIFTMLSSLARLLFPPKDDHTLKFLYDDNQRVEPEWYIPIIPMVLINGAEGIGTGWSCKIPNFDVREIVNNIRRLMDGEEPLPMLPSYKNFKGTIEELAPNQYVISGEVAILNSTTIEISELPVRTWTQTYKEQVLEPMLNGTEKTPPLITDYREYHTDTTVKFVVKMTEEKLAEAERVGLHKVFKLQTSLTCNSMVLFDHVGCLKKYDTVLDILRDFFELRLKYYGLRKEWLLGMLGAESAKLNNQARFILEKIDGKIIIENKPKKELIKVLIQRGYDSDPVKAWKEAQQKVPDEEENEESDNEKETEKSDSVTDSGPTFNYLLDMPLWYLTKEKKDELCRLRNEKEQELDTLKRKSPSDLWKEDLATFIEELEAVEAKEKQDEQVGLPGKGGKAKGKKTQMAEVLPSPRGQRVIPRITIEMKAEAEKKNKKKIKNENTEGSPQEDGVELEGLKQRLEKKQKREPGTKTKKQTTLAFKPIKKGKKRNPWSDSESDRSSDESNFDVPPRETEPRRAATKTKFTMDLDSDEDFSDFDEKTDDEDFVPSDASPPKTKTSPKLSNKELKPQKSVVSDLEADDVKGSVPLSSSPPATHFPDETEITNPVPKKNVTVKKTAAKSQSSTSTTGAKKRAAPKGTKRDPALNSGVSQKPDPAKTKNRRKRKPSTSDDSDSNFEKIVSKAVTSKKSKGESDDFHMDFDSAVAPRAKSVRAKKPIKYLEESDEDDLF
The target is the same in assay [6]. The assay can be described thus: Poison activity at human recombinant topoisomerase-2 alpha expressed in Escherichia coli assessed as generation of linear DNA using supercoiled pBR322 DNA at 100 to 200 uM after 60 mins by ethidium bromide staining based agarose gel electrophoresis.
Assay [7] has the same target. The assay can be described thus: Inhibition of human recombinant topoisomerase-2 alpha expressed in Escherichia coli assessed as reduction in supercoiled pBR322 DNA relaxation at 8 uM after 60 mins by ethidium bromide staining based agarose gel electrophoresis.
The target is the same in assay [8]. The experiment in a line: Poison activity at human recombinant topoisomerase-2 alpha expressed in Escherichia coli assessed as generation of linear DNA using supercoiled pBR322 DNA at 8 uM after 60 mins by ethidium bromide staining based agarose gel electrophoresis.

Activity calls are given as the source filed them. The rule behind the calls is not given here.

In the case of `CN(C)CCNC(=O)c1cnc2c(ccc3cc4c(cc32)OCCO4)c1`, the GI50 (in general, the concentration at which growth is held to half of that of the control) in assay [1] was 30 µM; in assay [2], more than 50 µM; in assay [3] it was more than 50 µM.
As for `CN(C)CCN1CCN(C(=O)c2cnc3c(ccc4ccccc43)c2)CC1`, the 50% growth inhibitory concentration (GI50) in assay [1], in assay [2] and in assay [3] was more than 50 µM each time.
`CN(C)CCNC(=O)c1cnc2ccc3ccccc3c2c1`: the GI50 is 24.1 µM in assay [1], 27.8 µM in assay [2] and more than 50 µM in assay [3]. Also, the result in assay [4] was Active. In assay [5], the inhibition entry was “Dose-dependent effect”. The outcome in assay [6] was inactive.
Turning to `CN(C)CCNC(=O)c1cnc2c(ccc3ccccc32)c1`, the GI50 in assay [1] was 29.8 µM; in assay [2], 32.2 µM; in assay [3] it was more than 50 µM.
Turning to `O=C(NCCN1CCOCC1)c1cnc2c(ccc3ccccc32)c1`, the 50% growth inhibitory concentration (GI50) in assay [1], in assay [2] and in assay [3] was more than 50 µM in each case.
Take `CCOC(=O)c1cnc2ccc3ccccc3c2c1`: the 50% growth inhibitory concentration (GI50) in assay [1] was not below 50 µM; in assay [2] it was not below 50 µM; in assay [3] it was more than 50 µM.
Regarding `CCOC(=O)c1cnc2c(ccc3cc4c(cc32)OCCO4)c1`, the GI50 in assay [1], in assay [2] and in assay [3] was more than 50 µM each time.
In the case of `COc1cc(NS(C)(=O)=O)ccc1Nc1c2ccccc2nc2ccccc12`, in assay [7], the inhibition entry is “Active”. The result in assay [8] was Active.
With `CN(C)CCN1CCN(C(=O)c2cnc3ccc4ccccc4c3c2)CC1`, the 50% growth inhibitory concentration (GI50) in assay [1], in assay [2] and in assay [3] was more than 50 µM in each case.
As for `O=C(NCCN1CCOCC1)c1cnc2ccc3ccccc3c2c1`, the concentration for 50% growth inhibition (GI50) in assay [1], in assay [2] and in assay [3] was more than 50 µM throughout.
Consider `CCOC(=O)c1cnc2c(ccc3ccccc32)c1`, for which the concentration for 50% growth inhibition (GI50) in assay [1] was more than 50 µM; in assay [2], not below 50 µM; in assay [3], more than 50 µM.
`CN(C)CCN1CCN(C(=O)c2cnc3c(ccc4cc5c(cc43)OCCO5)c2)CC1`: the values for the GI50 in assay [1], in assay [2] and in assay [3] were 33.8 µM, 39.4 µM and more than 50 µM, respectively.
Taken in the same sequence, the figures for `O=C(NCCN1CCOCC1)c1cnc2c(ccc3cc4c(cc32)OCCO4)c1` were 32.5 µM, more than 50 µM and more than 50 µM.

(Values after ChEMBL document CHEMBL4428130, “Novel benzoquinoline derivatives via unpredicted condensation of ethyl propiolate and naphthylamines: Synthesis and topoisomerase inhibition activity” (2016).)
